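Dose response: 5 concentrations. Exposure: 48 h. Format: 96-well plates. Endpoint: linear interpolation; highest concentration if not reached. At the GI50, growth is halved.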 Active and inactive are the calls of the source. Rule as the data show it: active = GI50 up to about 1.1 µM and inactive = higher.
Experiments:
Experiment in all cases: NCI tumour cell line growth inhibition, 48 h
[1] = tested on: HT-29
[2] = tested on: DU-145
[3] = tested on: NCI-H460
[4] = tested on: HOP-62
[5] = tested on: 786-0
[6] = tested on: CCRF-CEM
[7] = tested on: A498
[8] = tested on: LOX IMVI
[9] = tested on: HOP-92
[10] = tested on: OVCAR-5
[11] = tested on: MDA-N
[12] = tested on: M14
[13] = tested on: IGROV-1
[14] = tested on: MDA-MB-231
[15] = tested on: RPMI-8226
[16] = tested on: SN12C
[17] = tested on: U-251
[18] = tested on: UO-31
[19] = tested on: SK-MEL-28
[20] = tested on: SF-539
[21] = tested on: BT-549
[22] = tested on: COLO 205
[23] = tested on: PC-3
[24] = tested on: SR
[25] = tested on: UACC-257
[26] = tested on: T47D
[27] = tested on: Malme-3M
[28] = tested on: SK-MEL-2
[29] = tested on: MOLT-4
[30] = tested on: RXF 393
[31] = tested on: SNB-75
[32] = tested on: MCF7
[33] = tested on: KM12
[34] = tested on: NCI/ADR-RES
[35] = tested on: MDA-MB-435
[36] = tested on: HL-60
[37] = tested on: ACHN
[38] = tested on: SNB-19
[39] = tested on: A549
[40] = tested on: NCI-H522
[41] = tested on: SK-MEL-5
[42] = tested on: HCT-116
[43] = tested on: EKVX
[44] = tested on: OVCAR-8
[45] = tested on: NCI-H23
[46] = tested on: SK-OV-3
[47] = tested on: HCT-15
[48] = tested on: UACC-62
[49] = tested on: SF-295
[50] = tested on: SF-268
[51] = tested on: OVCAR-3
[52] = tested on: OVCAR-4
[53] = tested on: HCC 2998
[54] = tested on: TK-10
[55] = tested on: Hs-578T
[56] = tested on: NCI-H226
[57] = tested on: K562
[58] = tested on: SW-620
[59] = tested on: CAKI-1

Measured: GI50

COc1cc(-c2cc(=O)c3c(O)c(OC)c(OC)c(OC)c3o2)cc(OC)c1OC [GARDENIN]
> 100 µM: [47]
inactive: [1] > 100 µM | [2] > 100 µM | [3] 5.01 µM | [4] 3.43 µM | [5] 3.72 µM | [6] > 100 µM | [7] 2.92 µM | [8] 6.31 µM | [9] 4.04 µM | [10] > 68.9 µM | [11] > 92.7 µM | [12] > 100 µM | [13] 68.4 µM | [14] 2.91 µM | [15] > 44.7 µM | [16] 3.94 µM | [17] 3.01 µM | [18] 7.36 µM | [19] > 100 µM | [20] 17.1 µM | [21] 6.76 µM | [22] > 100 µM | [23] > 100 µM | [24] > 100 µM | [25] > 100 µM | [26] 10.2 µM | [27] > 100 µM | [28] > 55.6 µM | [29] > 100 µM | [30] 8.83 µM | [31] 2.23 µM | [32] > 100 µM | [33] > 100 µM | [34] 7.29 µM | [35] > 100 µM | [36] > 60 µM | [37] 3.33 µM | [38] 10.7 µM | [39] 7.18 µM | [40] 9.55 µM | [41] 11 µM | [42] 4.5 µM | [43] 22.3 µM | [44] 4.57 µM | [45] 15.1 µM | [46] 5.45 µM | [48] 32.4 µM | [49] 8.47 µM | [50] 8.71 µM | [51] 3.36 µM | [52] > 100 µM | [53] 22.5 µM | [54] 6.92 µM | [55] 3.15 µM | [56] 13.7 µM | [57] > 100 µM

CC(=O)NC1=C(Sc2ccc(Cl)cc2)C(=O)c2ccccc2C1=O
active: [6] 1.06 µM | [29] 0.374 µM | [36] 0.285 µM | [40] 0.272 µM
inactive: [1] 12.2 µM | [2] 14.6 µM | [58] 1.95 µM | [3] 8.34 µM | [5] 2.09 µM | [7] 3.5 µM | [8] 3.55 µM | [9] 1.82 µM | [10] 11.7 µM | [11] 1.76 µM | [13] 4.84 µM | [14] 3.04 µM | [15] 1.31 µM | [16] 4.67 µM | [17] 3.84 µM | [18] 1.95 µM | [19] 2.7 µM | [20] 2.15 µM | [21] 4.81 µM | [22] 2 µM | [23] 2.77 µM | [59] 3.7 µM | [24] 2.21 µM | [25] 5.33 µM | [26] 2.06 µM | [27] 2.97 µM | [28] 3.88 µM | [30] 1.86 µM | [32] 2.08 µM | [33] 4.75 µM | [34] 2.37 µM | [35] 2.08 µM | [37] 1.8 µM | [38] 13.2 µM | [39] 11.5 µM | [41] 1.85 µM | [43] 5.71 µM | [44] 2.04 µM | [45] 5.28 µM | [46] 15.7 µM | [48] 2.61 µM | [49] 8.81 µM | [50] 2.53 µM | [51] 2.05 µM | [52] 1.63 µM | [53] 14.7 µM | [54] 4.42 µM | [55] 10.4 µM | [56] 10.6 µM | [57] 2.56 µM
4.15 µM: [47]

— ChEMBL document CHEMBL1201862, “PubChem BioAssay data set” (2004)
